In patent US20050107270A1, “Alkyl ethanolamines for the control of mycobacteria in functional fluid” (priority 2003, published 2005):

Assays:
Format in all cases: cell-based
[1] = test system: Mycobacterium marinum (ATCC # 927); test: Mycobacterium marinum growth control, optical absorbance at 660 nm (Example 3); conditions: 72 hours
Procedure: The impact of these N-alkyl alkanolamines on the control of the bacterial species Mycobacterium marinum (ATCC # 927) is given in Table 3. Bacterial concentration in the experimental media was monitored indirectly via optical absorbance at 660 nm. The values reported are end-point optical densities in milliOD units after 72 hours. The media consisted of a standardized solution of clear nutrient broth (Middlebrook 7H 10 with OADC supplement), amine, buffer (Tris) and water. The pH was adjusted initially to 8.5 with Tris buffer. The first column in Table 3 gives the amine concentration in parts per million by weight. In all cases, the values are averages of at least three replicates. The final row of Table 3 gives an estimate of the concentration range in which the amine in question starts to inhibit the growth of this bacterial species (minimum inhibitor concentration MIC).

[2] = test system: Mycobacterium smegmatis (ATCC # 19420); test: Mycobacterium smegmatis growth control, optical absorbance at 660 nm (Example 2); conditions: 48 hours
Procedure: The impact of these N-alkyl alkanolamines on the control of the bacterial species Mycobacterium smegmatis (ATCC # 19420) is given in the Table 2. Bacterial concentration in the experimental media was monitored indirectly via optical absorbance at 660 nm. The values reported are end-point optical densities in milliOD units after 48 hours. The media consisted of a standardized solution of clear nutrient broth (Middlebrook 7H10 with OADC supplement), amine, buffer (Tris) and water. The pH was adjusted initially to 8.5 with Tris buffer. The first column in the Table gives the amine concentration in parts per million by weight. The final two columns give data for cells that also contained 2 grams per liter of boric acid. In all cases, the values are averages of at least three replicate runs. The final row of Table 2 gives an estimate of the concentration range in which the amine in question starts to inhibit the growth of this bacterial species (minimum inhibitor concentration MIC).

[3] = test system: Mycobacterium smegmatis (ATCC # 19420); test: Mycobacterium smegmatis growth control, optical absorbance at 590 nm with tetrazolium dye (Example 1); conditions: compared with AMP (2-amino-2-methyl-1-propanol)
[4] = with 2 grams per liter of boric acid

Compound	MIC (minimum inhibitor concentration), estimated concentration range in which the amine starts to inhibit growth [1]	MIC (minimum inhibitor concentration), estimated concentration range in which the amine starts to inhibit growth ([2]; no boric acid)	effectiveness against Mycobacteria, in words [3]	MIC (minimum inhibitor concentration), estimated concentration range in which the amine starts to inhibit growth [2, 4]
CCCCNCCO [BAE, butylaminoethanol]	>4000 ppm			
CCCCCCCCN(CCO)CCO [ODEA, Octyldiethanolamine]	1200-2000 ppm	500-1000 ppm		
CCCCCCCCNCCO [OAE, octylaminoethanol]	1200-2000 ppm	<500 ppm	markedly more effective than AMP	<500 ppm
C1CCC(NC2CCCCC2)CC1 [DCHA, Dicyclohexylamine, reference compound]	>4000 ppm	1500-2000 ppm		1000-2000 ppm
